Experiment [1] is described as follows: DRUGMATRIX: beta-Lactamase enzyme inhibition (substrate: Nitrocefin). The arrangement: species or system Bacillus cereus. Conditions: Not Active = under 50% inhibition at 10 µM.
A further experiment concerns the target T1, Adenosine receptor A3 (Homo sapiens, UniProt P0DMS8).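 Note: radioligand binding assay with AB-MECA serving as the labeled ligand; in other assays of this panel Not Active means under 50% inhibition at 10 µM.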
T1 sequence (P0DMS8 whole entry): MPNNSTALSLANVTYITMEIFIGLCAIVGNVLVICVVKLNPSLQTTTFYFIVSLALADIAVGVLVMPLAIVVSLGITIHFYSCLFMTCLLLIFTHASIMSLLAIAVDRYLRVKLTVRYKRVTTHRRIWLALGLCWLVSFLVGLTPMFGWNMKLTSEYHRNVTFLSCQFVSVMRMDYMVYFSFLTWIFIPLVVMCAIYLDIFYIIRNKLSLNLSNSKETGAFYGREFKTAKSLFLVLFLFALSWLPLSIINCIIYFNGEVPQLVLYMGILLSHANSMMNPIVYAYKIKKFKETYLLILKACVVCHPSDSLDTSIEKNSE
The class given is cell membranes, CHO-K1, Membrane. Particulars: cho-k1.

Another experiment addresses Substance-P receptor (Homo sapiens, UniProt P25103). The class given is cell membranes, CHO, Membrane. Conditions: cho.
The target of experiment [2] is T2, Muscarinic acetylcholine receptor M2 (Homo sapiens, UniProt P08172). Note: in other assays of this panel Not Active means under 50% inhibition at 10 µM.
T2 sequence (P08172 whole entry): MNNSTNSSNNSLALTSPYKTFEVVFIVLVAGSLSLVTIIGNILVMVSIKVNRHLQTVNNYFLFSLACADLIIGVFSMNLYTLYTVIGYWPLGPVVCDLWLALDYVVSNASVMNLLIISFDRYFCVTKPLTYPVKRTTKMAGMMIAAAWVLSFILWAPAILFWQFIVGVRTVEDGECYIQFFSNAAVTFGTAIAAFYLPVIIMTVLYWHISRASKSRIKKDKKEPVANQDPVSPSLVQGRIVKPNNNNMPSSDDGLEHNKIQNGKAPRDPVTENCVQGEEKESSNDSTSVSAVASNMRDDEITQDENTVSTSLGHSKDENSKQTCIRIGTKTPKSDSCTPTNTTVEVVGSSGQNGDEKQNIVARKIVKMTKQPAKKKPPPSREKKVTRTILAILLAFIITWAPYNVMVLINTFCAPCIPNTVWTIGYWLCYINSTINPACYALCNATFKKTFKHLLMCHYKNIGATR
The class given is cell membranes, CHO-K1, Membrane. Particulars: for IC50: cho-k1.

Experiment [3] has as its target 5-hydroxytryptamine receptor 1B (Rattus norvegicus, UniProt P28564). The class given is cell membranes, Wistar, Cerebral cortex, Membrane. Note: in other assays of this panel Not Active means under 50% inhibition at 10 µM.
Experiment [4] deals with T3, Muscarinic acetylcholine receptor M4 (Homo sapiens, UniProt P08173).
T3 sequence (P08173 whole entry): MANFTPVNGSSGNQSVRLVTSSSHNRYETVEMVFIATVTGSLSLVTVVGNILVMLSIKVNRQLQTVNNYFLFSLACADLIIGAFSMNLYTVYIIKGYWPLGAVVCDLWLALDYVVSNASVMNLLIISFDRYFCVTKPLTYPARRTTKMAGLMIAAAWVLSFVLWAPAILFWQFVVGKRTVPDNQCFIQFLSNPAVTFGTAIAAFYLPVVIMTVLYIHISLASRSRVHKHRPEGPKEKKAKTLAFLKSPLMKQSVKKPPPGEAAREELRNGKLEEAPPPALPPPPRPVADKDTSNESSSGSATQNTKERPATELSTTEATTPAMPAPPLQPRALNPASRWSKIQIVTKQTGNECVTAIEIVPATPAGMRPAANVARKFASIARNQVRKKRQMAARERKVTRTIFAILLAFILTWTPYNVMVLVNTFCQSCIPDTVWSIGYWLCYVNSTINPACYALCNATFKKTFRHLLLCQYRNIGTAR
The class given is cell membranes, CHO-K1, Membrane. Conditions: for IC50: cho-k1.

The structures appear in SMILES notation. pIC50, pKi: −log10 of the molar value.

Chain of 5-hydroxytryptamine receptor 1B (P28564 whole entry): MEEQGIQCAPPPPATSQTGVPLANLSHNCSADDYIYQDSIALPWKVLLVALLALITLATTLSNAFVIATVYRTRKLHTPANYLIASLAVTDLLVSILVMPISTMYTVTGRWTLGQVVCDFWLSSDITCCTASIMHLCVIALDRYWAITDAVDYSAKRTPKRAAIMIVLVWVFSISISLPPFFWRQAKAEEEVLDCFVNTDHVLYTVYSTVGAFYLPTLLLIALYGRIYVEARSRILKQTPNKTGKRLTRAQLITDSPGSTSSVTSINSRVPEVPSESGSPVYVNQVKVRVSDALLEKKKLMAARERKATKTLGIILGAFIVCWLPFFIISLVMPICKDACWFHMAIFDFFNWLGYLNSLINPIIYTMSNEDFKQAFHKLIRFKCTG
Chain of Substance-P receptor (P25103 whole entry): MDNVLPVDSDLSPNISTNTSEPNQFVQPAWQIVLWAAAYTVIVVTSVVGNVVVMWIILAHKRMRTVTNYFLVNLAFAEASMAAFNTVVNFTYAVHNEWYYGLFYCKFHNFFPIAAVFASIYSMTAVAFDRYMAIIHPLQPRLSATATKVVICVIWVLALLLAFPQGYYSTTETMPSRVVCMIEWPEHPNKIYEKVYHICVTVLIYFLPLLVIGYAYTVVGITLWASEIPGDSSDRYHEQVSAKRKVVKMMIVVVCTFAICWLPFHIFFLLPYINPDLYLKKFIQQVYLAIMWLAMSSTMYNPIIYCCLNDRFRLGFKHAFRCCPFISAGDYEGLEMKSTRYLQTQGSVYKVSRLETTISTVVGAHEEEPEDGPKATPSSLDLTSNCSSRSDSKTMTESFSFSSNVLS

In the case of `ClC(Cl)(Cl)Cl` [CARBON TETRACHLORIDE], the IC50 entry (in experiment [1]; at Adenosine receptor A3; at Substance-P receptor; in experiment [2]; in experiment [3]; in experiment [4]) was “Not Active” in each case. For the same compound, the Ki result in experiment [1] was “Not Active”.
Take `CO/N=C(\C(=O)N[C@@H]1C(=O)N2C(C(=O)O)=C(COC(C)=O)CS[C@H]12)c1csc(N)n1` [CEFOTAXIME]: the IC50 entry (in experiment [1]; against Adenosine receptor A3; against Substance-P receptor; in experiment [2]; in experiment [3]; in experiment [4]) was “Not Active” throughout. The Ki result in experiment [1] was “Not Active”.
On to `CNC1=Nc2ccc(Cl)cc2C(c2ccccc2)=[N+]([O-])C1` [CHLORDIAZEPOXIDE], for which the IC50 result (in experiment [1]; against Adenosine receptor A3; at Substance-P receptor; in experiment [2]; in experiment [3]; in experiment [4]) was “Not Active” in each case. In experiment [1], the Ki result is given as “Not Active”.
For the compound `Cc1cc(O)cc(C)c1Cl` [CHLOROXYLENOL], the IC50 entry (in experiment [1]; against Adenosine receptor A3; at Substance-P receptor; in experiment [2]; in experiment [3]; in experiment [4]) was “Not Active” in each case. The Ki entry in experiment [1] is reported as “Not Active”.
Consider `CCCNC(=O)NS(=O)(=O)c1ccc(Cl)cc1` [CHLORPROPAMIDE], for which the IC50 entry (in experiment [1]; on Adenosine receptor A3; on Substance-P receptor; in experiment [2]; in experiment [3]; in experiment [4]) was “Not Active” throughout. Further, the Ki entry in experiment [1] was “Not Active”.
Turning to `NS(=O)(=O)c1cc(C2(O)NC(=O)c3ccccc32)ccc1Cl` (configuration not stated) [CHLORTHALIDONE], the IC50 entry (in experiment [1]; at Adenosine receptor A3; at Substance-P receptor; in experiment [2]; in experiment [3]; in experiment [4]) was “Not Active” in each case. Besides, the Ki result in experiment [1] is “Not Active”.
As for `O=C(O)CC(O)(CC(=O)O)C(=O)O` [CITRIC ACID], the IC50 result (in experiment [1]; against Adenosine receptor A3; against Substance-P receptor; in experiment [2]; in experiment [3]; in experiment [4]) was “Not Active” in each case. Further, the Ki entry in experiment [1] was “Not Active”.
Consider `CC(C)NCC(O)c1ccccc1Cl` (configuration not stated) [CLORPRENALINE], for which the IC50 entry (in experiment [1]; against Adenosine receptor A3; at Substance-P receptor; in experiment [2]; in experiment [3]; in experiment [4]) was “Not Active” throughout. Further, the Ki entry in experiment [1] is “Not Active”.
Regarding `CN1CCN(C(c2ccccc2)c2ccccc2)CC1` [CYCLIZINE], the IC50 result (in experiment [1]; at Adenosine receptor A3; against Substance-P receptor; in experiment [3]) was “Not Active” each time. Also, in experiment [1], the Ki entry is given as “Not Active”. In addition, the values for the negative-log IC50 (pIC50) in experiment [2] (read-out: IC50) and in experiment [4] (read-out: IC50) were 5.94 and 6.07, respectively. In addition, the pKi in experiment [2] (read-out: Ki) is 6.39; in experiment [4] (read-out: Ki), 6.92.
`CN1C[C@@H]2C[C@H]1CN2c1cc2c(cc1F)c(=O)c(C(=O)O)cn2C1CC1` [DANOFLOXACIN]: the IC50 entry (in experiment [1]; against Adenosine receptor A3; against Substance-P receptor; in experiment [2]; in experiment [3]; in experiment [4]) was “Not Active” in each case. Further, the Ki entry in experiment [1] is reported as “Not Active”.
Turning to `COc1cccc2c1C(=O)c1c(O)c3c(c(O)c1C2=O)C[C@@](O)(C(C)=O)C[C@@H]3O[C@H]1C[C@H](N)[C@H](O)[C@H](C)O1` [DAUNORUBICIN], the IC50 result (in experiment [1]; at Adenosine receptor A3; on Substance-P receptor; in experiment [2]; in experiment [3]; in experiment [4]) was “Not Active” in each case. Further, the Ki entry in experiment [1] was “Not Active”.
Turning to `O=C(O)c1cc(-c2ccc(F)cc2F)ccc1O` [DIFLUNISAL], the IC50 result (in experiment [1]; on Adenosine receptor A3; at Substance-P receptor; in experiment [2]; in experiment [3]; in experiment [4]) was “Not Active” each time. Moreover, the Ki entry in experiment [1] is “Not Active”.
Consider `C[S+](C)[O-]` [DIMETHYL SULFOXIDE], for which the IC50 entry (in experiment [1]; on Adenosine receptor A3; against Substance-P receptor; in experiment [2]; in experiment [3]; in experiment [4]) was “Not Active” each time. In experiment [1], the Ki result is given as “Not Active”.
Regarding `CC1=NN(c2ccccc2)C(=O)C1` [EDARAVONE], the IC50 result (in experiment [1]; at Adenosine receptor A3; against Substance-P receptor; in experiment [2]; in experiment [3]; in experiment [4]) was “Not Active” each time. In experiment [1], the Ki result is listed as “Not Active”.
Turning to `CC(C)C[C@H]1C(=O)N2CCC[C@H]2[C@]2(O)O[C@](NC(=O)[C@@H]3C=C4c5cccc6[nH]cc(c56)C[C@H]4N(C)C3)(C(C)C)C(=O)N12` [ERGOCRYPTINE], the IC50 entry (in experiment [1]; at Adenosine receptor A3; against Substance-P receptor; in experiment [2]; in experiment [4]) was “Not Active” in each case. Also, the Ki entry in experiment [1] was “Not Active”. In addition, in experiment [3] (read-out: IC50), the pIC50 was 8.09. Moreover, the negative-log Ki (pKi) in experiment [3] (read-out: Ki) was 8.30.
As for `C[C@]12CC[C@@H]3c4ccc(O)cc4CC[C@H]3[C@@H]1C[C@@H](O)[C@@H]2O` [ESTRIOL], the IC50 entry (in experiment [1]; against Adenosine receptor A3; against Substance-P receptor; in experiment [2]; in experiment [3]; in experiment [4]) was “Not Active” throughout. Moreover, in experiment [1], the Ki entry is reported as “Not Active”.
Regarding `C#C[C@]1(O)CC[C@H]2[C@@H]3CCC4=CC(=O)CC[C@]4(C)[C@H]3CC[C@@]21C` [ETHISTERONE], the IC50 result (in experiment [1]; against Adenosine receptor A3; on Substance-P receptor; in experiment [2]; in experiment [3]; in experiment [4]) was “Not Active” throughout. Moreover, in experiment [1], the Ki entry was “Not Active”.
In the case of `CC(O)(P(=O)(O)O)P(=O)(O)O` [ETIDRONIC ACID], the IC50 result (in experiment [1]; against Adenosine receptor A3; against Substance-P receptor; in experiment [2]; in experiment [3]; in experiment [4]) was “Not Active” throughout. In experiment [1], the Ki result is “Not Active”.
As for `CC(C)(C(=O)O)c1ccc(C(O)CCCN2CCC(C(O)(c3ccccc3)c3ccccc3)CC2)cc1` (configuration not stated) [FEXOFENADINE], the IC50 result (in experiment [1]; on Adenosine receptor A3; against Substance-P receptor; in experiment [2]; in experiment [3]; in experiment [4]) was “Not Active” throughout. Further, the Ki result in experiment [1] was “Not Active”.
Turning to `CN1CCN(c2c(F)cc3c(=O)c(C(=O)O)cn(CCF)c3c2F)CC1` [FLEROXACIN], the IC50 entry (in experiment [1]; against Adenosine receptor A3; against Substance-P receptor; in experiment [2]; in experiment [3]; in experiment [4]) was “Not Active” throughout. The Ki entry in experiment [1] is listed as “Not Active”.
Consider `O=c1[nH]c(=O)n([C@H]2C[C@H](O)[C@@H](CO)O2)cc1F` [FLOXURIDINE], for which the IC50 result (in experiment [1]; against Adenosine receptor A3; at Substance-P receptor; in experiment [2]; in experiment [3]; in experiment [4]) was “Not Active” each time. For the same compound, the Ki entry in experiment [1] is listed as “Not Active”.
Turning to `COC(=O)Nc1nc2cc(C(=O)c3ccc(F)cc3)ccc2[nH]1` [FLUBENDAZOLE], the IC50 result (in experiment [1]; against Adenosine receptor A3; at Substance-P receptor; in experiment [2]; in experiment [3]; in experiment [4]) was “Not Active” throughout. In addition, the Ki result in experiment [1] is recorded as “Not Active”.

For the origin of these results see ChEMBL document CHEMBL1909046, “DrugMatrix in vitro pharmacology data”.
